Earlier results in patent publication US20170326180A1, “Demineralized Bone Matrix Material having Allogenic Sphingosine-1-Phosphate” (DePuy Synthes Products, Inc., priority 2016, published 2017).

Test system: mesenchymal stem cells
Conditions: solution having 0.1 and 1 uM C1P; reported by Kim

## ceramide-1-phosphate [C1P]
  chemotactic activity for mesenchymal stem cells: chemotactic activity
